Results published in US8653100B2 (AbbVie Inc., priority 2008, dated 2014).
Where a name gives a salt, the structure may show the parent alone.

Biological target: human GlyT1c transporter (Homo sapiens (Human), UniProt P48067)
Assay: Radioligand binding assay using recombinant CHO cell membranes expressing human GlyT1
Conditions: examples 88-204, radioligand not specified by footnote, read-out: radioligand binding Kiapp
Procedure: 2. Radioligand binding assays using recombinant CHO cell membranes expressing human GlyT1:
Radioligand binding to human GlyT1c transporter-expressing membranes was carried out as described in Mezler et al., Molecular Pharmacology 74:1705-1715, 2008.
More specifically, [^3H]-(R)-NPTS radioligand binding to human GlyT1c transporter-expressing membranes was measured in duplicate in a total volume of 200 μl in 96-well plates. To 100 μl of membrane suspension (yielding a final membrane protein concentration of 50 μg/ml) in assay buffer (120 mM NaCl, 2 mM KCl, 10 mM Hepes, 1 mM MgCl2, 1 mM CaCl2, pH 7.5) […] of [^3H]-(R)-NPTS (0.5 nM final) were added in assay buffer. For competition experiments 10 μl of buffer or unlabeled compound solution obtained from dilution series of test compounds in DMSO followed. An intermediate 1:10 dilution in assay buffer yielded a final DMSO concentration of 1%. Non-specific binding was determined in the presence of 10 μM Org24598 (or its racemate Org24461) for [^3H]-(R)-NPTS. After incubation at room temperature for 1 h, the incubation mixture was harvested (Tomtec Mach III U Harvester) through 96-well GF/B filter plates (PerkinElmer), presoaked for 1 h with 40 μl per well of 0.1% polyethylene-imine (PEI). After washing twice with ice-cold 50 mM Tris-HCl pH 7.4 buffer, drying and addition of 35 μl scintillator (BetaplateScint, PerkinElmer) per well followed. The radioactivity was determined by liquid scintillation spectrometry in a MicroBeta (PerkinElmer) plate counter.
Data analysis: For binding of [^3H]-(R)-NPTS to cell membranes, the calculation of Kd and Bmax values from the saturation binding assays and the IC50 values from the displacement binding was performed by iterative non-linear regression analysis adapted from the ‘Ligand’ program (Munson and Rodbard, 1980). Radioligand displacement curves in absence or in presence of increasing concentrations of tested compounds were fitted using a one-site fit and the apparent Ki values were calculated from the IC50 values using the Cheng-Prusoff equation (Cheng and Prusoff 1973).

Sequence of human GlyT1c transporter (P48067 whole entry): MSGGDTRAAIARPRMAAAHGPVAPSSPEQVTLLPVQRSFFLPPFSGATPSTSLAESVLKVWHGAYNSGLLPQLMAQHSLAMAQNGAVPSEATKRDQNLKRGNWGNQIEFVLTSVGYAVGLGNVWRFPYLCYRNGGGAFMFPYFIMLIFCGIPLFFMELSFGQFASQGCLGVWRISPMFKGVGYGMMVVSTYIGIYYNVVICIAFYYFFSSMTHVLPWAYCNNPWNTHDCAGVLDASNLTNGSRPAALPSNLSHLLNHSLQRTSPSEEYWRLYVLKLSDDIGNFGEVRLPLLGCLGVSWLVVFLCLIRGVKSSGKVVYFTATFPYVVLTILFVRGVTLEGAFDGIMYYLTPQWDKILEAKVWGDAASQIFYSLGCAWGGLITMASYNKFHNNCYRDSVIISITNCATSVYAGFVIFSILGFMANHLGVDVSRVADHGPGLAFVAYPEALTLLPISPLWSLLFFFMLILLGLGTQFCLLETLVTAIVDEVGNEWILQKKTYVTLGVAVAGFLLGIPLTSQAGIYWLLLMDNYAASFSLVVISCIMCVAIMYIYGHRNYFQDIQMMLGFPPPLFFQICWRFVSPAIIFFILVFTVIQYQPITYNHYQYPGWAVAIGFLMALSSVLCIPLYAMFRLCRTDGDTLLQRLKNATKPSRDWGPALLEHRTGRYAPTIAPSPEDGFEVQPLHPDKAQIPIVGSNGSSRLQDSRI

Structure (SMILES)	Ki [nM]
CCCS(=O)(=O)Nc1cccnc1Oc1ccc2c(c1)C(C1(c3ccc(Cl)cc3)CCC1)NCC2 (stereo not drawn) [Example 128, N-[2-({1-[1-(4-Chlorophenyl)cyclobutyl]-1,2,3,4-tetrahydroisoquinolin-7-yl}oxy)pyridin-3-yl]propane-1-sulfonamide dihydrochloride]	≤ 10000
CCCS(=O)(=O)NCc1ccc2c(c1)C(C1(c3ccccn3)CCC1)NCC2 (stereo not drawn) [Example 125, N-({1-[1-(Pyridin-2-yl)cyclobutyl]-1,2,3,4-tetrahydroisoquinolin-7-yl}methyl)propane-1-sulfonamide trifluoroacetate]	≤ 10000
O=S(=O)(Nc1cccnc1Oc1ccc2c(c1)C(C1(c3ccc(Cl)cc3)CCC1)NCC2)c1cccs1 (stereo not drawn) [Example 127, N-[2-({1-[1-(4-Chlorophenyl)cyclobutyl]-1,2,3,4-tetrahydroisoquinolin-7-yl}oxy)pyridin-3-yl]thiophene-2-sulfonamide dihydrochloride]	≤ 10000
Cn1cnc(S(=O)(=O)NCC(=O)Nc2ccc3c(c2)C(C2(c4ccc(Cl)cc4)CCC2)NCC3)c1 (stereo not drawn) [Example 111, N-{1-[1-(4-Chlorophenyl)cyclobutyl]-1,2,3,4-tetrahydroisoquinolin-7-yl}-N˜2˜-[(1-methyl-1H-imidazol-4-yl)sulfonyl]glycinamide dihydrochloride]	≤ 1000
O=S(=O)(Nc1ccc(Oc2ccc3c(c2)C(C2(c4ccc(Cl)cc4)CCC2)NCC3)cc1)c1cccs1 (stereo not drawn) [Example 115, N-[4-({1-[1-(4-Chlorophenyl)cyclobutyl]-1,2,3,4-tetrahydroisoquinolin-7-yl}oxy)phenyl]thiophene-2-sulfonamide hydrochloride]	≤ 1000
O=S(=O)(NCCOc1ccc2c(c1)C(C1(c3ccc(Cl)cc3)CCC1)NCC2)c1ccc(N2CCOCC2)nc1 (stereo not drawn) [Example 189, N-[2-({1-[1-(4-Chlorophenyl)cyclobutyl]-1,2,3,4-tetrahydroisoquinolin-7-yl}oxy)ethyl]-6-(morpholin-4-yl)pyridine-3-sulfonamide hydrochloride]	≤ 10000
Cn1cc(S(=O)(=O)NCc2ccc3c(c2)C(C2(c4ccc(Cl)cc4)CCC2)NCC3)cn1 (stereo not drawn) [Example 91, N-({1-[1-(4-Chlorophenyl)cyclobutyl]-1,2,3,4-tetrahydroisoquinolin-7-yl}methyl)-1-methyl-1H-pyrazole-4-sulfonamide trifluoroacetate]	≤ 100
O=S(=O)(Nc1ccccc1Oc1ccc2c(c1)C(C1(c3ccc(Cl)cc3)CCC1)NCC2)c1cccnc1 (stereo not drawn) [Example 122, N-[2-({1-[1-(4-Chlorophenyl)cyclobutyl]-1,2,3,4-tetrahydroisoquinolin-7-yl}oxy)phenyl]pyridine-3-sulfonamide dihydrochloride]	≤ 10000
Cn1cc(S(=O)(=O)NCCOc2ccc3c(c2)C(C2(c4ccc(Cl)cc4)CC(F)(F)C2)NCC3)cn1 (single isomer, unassigned) [Example 138, N-[2-({1-[1-(4-Chlorophenyl)-3,3-difluorocyclobutyl]-1,2,3,4-tetrahydroisoquinolin-7-yl}oxy)ethyl]-1-methyl-1H-pyrazole-4-sulfonamide]	≤ 100

Further lines, results first:

Ki [nM]	Structure (SMILES)
≤ 10000	O=S(=O)(NCCOc1ccc2c(c1)C(C1(c3ccc(Cl)cc3)CCC1)NCC2)C1CCNC1 (single isomer, unassigned) [Example 175, N-[2-({1-[1-(4-Chlorophenyl)cyclobutyl]-1,2,3,4-tetrahydroisoquinolin-7-yl}oxy)ethyl]pyrrolidine-3-sulfonamide dihydrochloride]
≤ 10000	CNCCCS(=O)(=O)NCCOc1ccc2c(c1)C(C1(c3ccc(Cl)cc3)CCC1)NCC2 (stereo not drawn) [Example 178, N-[2-({1-[1-(4-Chlorophenyl)cyclobutyl]-1,2,3,4-tetrahydroisoquinolin-7-yl}oxy)ethyl]-3-(methylamino)propane-1-sulfonamide (2E)-but-2-enedioate]
≤ 10000	CC(=O)N1CC(S(=O)(=O)NCCOc2ccc3c(c2)C(C2(c4ccc(Cl)cc4)CCC2)NCC3)C1 (stereo not drawn) [Example 180, 1-Acetyl-N-[2-({1-[1-(4-chlorophenyl)cyclobutyl]-1,2,3,4-tetrahydroisoquinolin-7-yl}oxy)ethyl]azetidine-3-sulfonamide di[(2E)-but-2-enedioate]]
≤ 1000	CC(C)NCCS(=O)(=O)NCCOc1ccc2c(c1)C(C1(c3ccc(Cl)cc3)CCC1)NCC2 (stereo not drawn) [Example 169, N-[2-({1-[1-(4-Chlorophenyl)cyclobutyl]-1,2,3,4-tetrahydroisoquinolin-7-yl}oxy)ethyl]-2-(propan-2-ylamino)ethanesulfonamide]
≤ 100	CN(C)S(=O)(=O)NCCOc1ccc2c(c1)C(C1(c3ccc(Cl)cc3)CCC1)NCC2 (stereo not drawn) [Example 143, N′-[2-({1-[1-(4-Chlorophenyl)cyclobutyl]-1,2,3,4-tetrahydroisoquinolin-7-yl}oxy)ethyl]-N,N-dimethylsulfuric diamide hydrochloride]
≤ 1000	Nc1ncc(S(=O)(=O)NCCOc2ccc3c(c2)C(C2(c4ccc(Cl)cc4)CCC2)NCC3)s1 (stereo not drawn) [Example 163, 2-Amino-N-[2-({1-[1-(4-chlorophenyl)cyclobutyl]-1,2,3,4-tetrahydroisoquinolin-7-yl}oxy)ethyl]-1,3-thiazole-5-sulfonamide dihydrochloride]
≤ 100	CCCS(=O)(=O)NCc1ccc2c(c1)C(C1(c3ccc(Cl)cc3)CCC1)NCC2 (stereo not drawn) [Example 90, N-({1-[1-(4-Chlorophenyl)cyclobutyl]-1,2,3,4-tetrahydroisoquinolin-7-yl}methyl)propane-1-sulfonamide hydrochloride]
≤ 1000	O=S(=O)(NCCOc1ccc2c(c1)C(C1(c3ccc(Cl)cc3)CCC1)NCC2)c1ccc(CCF)cc1 (stereo not drawn) [Example 110, N-[2-({1-[1-(4-Chlorophenyl)cyclobutyl]-1,2,3,4-tetrahydroisoquinolin-7-yl}oxy)ethyl]-4-(2-fluoroethyl)benzenesulfonamide hydrochloride]
≤ 100000	O=S(=O)(NCCOc1ccc2c(c1)C(C1(c3ccc(Cl)cc3)CCC1)NCC2)c1ncn[nH]1 (stereo not drawn) [Example 204, N-[2-({1-[1-(4-Chlorophenyl)cyclobutyl]-1,2,3,4-tetrahydroisoquinolin-7-yl}oxy)ethyl]-1H-1,2,4-triazole-5-sulfonamide]
≤ 100	NCCS(=O)(=O)NCCOc1ccc2c(c1)C(C1(c3ccc(Cl)cc3)CCC1)NCC2 (single isomer, unassigned) [Example 158, 2-Amino-N-[2-({1-[1-(4-chlorophenyl)cyclobutyl]-1,2,3,4-tetrahydroisoquinolin-7-yl}oxy)ethyl]ethanesulfonamide dihydrochloride]
≤ 100	Nc1cccc(S(=O)(=O)NCCOc2ccc3c(c2)C(C2(c4ccc(Cl)cc4)CCC2)NCC3)c1 (stereo not drawn) [Example 157, 3-Amino-N-[2-({1-[1-(4-chlorophenyl)cyclobutyl]-1,2,3,4-tetrahydroisoquinolin-7-yl}oxy)ethyl]benzenesulfonamide dihydrochloride]
≤ 100	NCCS(=O)(=O)NCCOc1ccc2c(c1)[C@H](C1(c3ccc(Cl)cc3)CCC1)NCC2 [Example 146, 2-Amino-N-[2-({(1S)-1-[1-(4-chlorophenyl)cyclobutyl]-1,2,3,4-tetrahydroisoquinolin-7-yl}oxy)ethyl]ethanesulfonamide dihydrochloride]
